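These data come from cells grown in 96-well plates and exposed to compound for 48 hours at five concentrations. Here, GI50 denotes the concentration required for 50% inhibition of growth. TGI denotes the concentration required for complete inhibition of growth.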
Tests used:
Assay in all cases: NCI-60 cell line screen, 48 h
[1] = tested on: A498 renal
[2] = tested on: BT-549 breast
[3] = tested on: IGROV1 ovarian
[4] = tested on: NCI-H23 lung
[5] = tested on: NCI/ADR-RES ovarian
[6] = tested on: SF-295 CNS
[7] = tested on: SK-OV-3 ovarian
[8] = tested on: SW-620 colon
[9] = tested on: U251 CNS
[10] = tested on: UO-31 renal

SMILES | GI50 [1] | TGI [1] | GI50 [2] | TGI [2] | GI50 [3] | TGI [3] | GI50 [4] | TGI [4] | GI50 [5] | TGI [5] | GI50 [6] | TGI [6] | GI50 [7] | TGI [7] | GI50 [8] | TGI [8] | GI50 [9] | TGI [9] | GI50 [10] | TGI [10]
Oc1c(-c2nnc(-c3ccccc3Cl)o2)sc2nnc(-c3ccccc3)c(-c3ccccc3)c12 | 7.35 µM | 41.7 µM | 12.6 µM | > 100 µM | 2.47 µM | 8.78 µM | 4.87 µM | > 100 µM | 1.09 µM | > 100 µM | 1.89 µM | 15.6 µM | 5.14 µM | > 100 µM | 4.07 µM | 25.3 µM | 2.31 µM | > 100 µM | 2.38 µM | 8.4 µM
O=C(Oc1cccc(F)c1OC(=O)c1cccc(O)c1)c1cccc(O)c1 | > 100 µM | > 100 µM | 24.4 µM | > 100 µM | 7.47 µM | > 100 µM | 26.9 µM | > 100 µM | 10.3 µM | 77.6 µM | 36.1 µM | > 100 µM | 84 µM | > 100 µM | 37.4 µM | > 100 µM | 17.8 µM | > 100 µM | 5.56 µM | > 100 µM
CCOC(=O)Nc1ccc2c(c1)/C(=N\NC(N)=S)c1ccccc1-2 | 2.39 µM | 8.18 µM | 4.24 µM | 14.3 µM | 5.88 µM | 28.1 µM | 2.95 µM | 12.6 µM | 2.75 µM | 9.4 µM | 2.37 µM | 7.59 µM | 11.7 µM | 44.8 µM | 5.91 µM | 32.6 µM | 4.54 µM | 40.9 µM | 3.97 µM | 14.2 µM
C/C(=N\NC(=S)N1CC2CCC(CC2)C1)c1nccs1 |  | 14.3 µM |  | 20 µM |  | 15 µM |  | 13 µM |  | 3.9 µM |  | 7.81 µM |  | 11.3 µM |  | 18.9 µM |  | 6.43 µM |  | 1.52 µM
COc1ccc2[nH]cc(-c3ccc(-c4c[nH]c5ccc(OC)cc45)s3)c2c1 | 3.58 µM | 14.3 µM | 7.44 µM | 20.9 µM | 8.72 µM | 51 µM | 6.36 µM | 26.2 µM | 3.78 µM | 19.5 µM | 2.8 µM | 8.47 µM | 14.7 µM | 39.8 µM | 2.94 µM | 8.15 µM | 3.68 µM | 12.6 µM | 2.9 µM | 13.5 µM
O=C(c1ccccc1)c1ccccc1-c1ccccc1 | 2.08 µM | 15.6 µM | 10.3 µM | > 100 µM | 3.32 µM | > 100 µM | 4.46 µM | > 100 µM | 1 µM | 8.02 µM | 1.85 µM | 29 µM | 3.54 µM | 25.2 µM | 1.54 µM | > 100 µM | 4.21 µM | 46.2 µM | 6.99 µM | 98.1 µM
O=C1C(Cl)=C(Nc2cccc(F)c2)C(=O)N1Cc1ccc(Cl)cc1 | 2.42 µM | 8.99 µM | 0.841 µM | 13.4 µM | 2.92 µM | 16.9 µM | 0.832 µM | 14.4 µM | 0.426 µM | 5.61 µM | 1.16 µM | 10.9 µM | 2.59 µM | 17.6 µM | 0.531 µM | 13 µM | 0.337 µM | > 32 µM | 3.69 µM | 35.9 µM
